Key:
[1] = test system: Abutilon theophrasti; assay: Phytotoxicity against Abutilon theophrasti assessed as seed germination at 5 mM after 4 days relative to control; type: functional
[2] = test system: Abutilon theophrasti; assay: Phytotoxicity against Abutilon theophrasti assessed as seed germination at 1 mM after 2 days relative to control; type: functional
[3] = test system: Abutilon theophrasti; assay: Phytotoxicity against Abutilon theophrasti assessed as seed germination at 0.5 mM after 4 days relative to control; type: functional
[4] = test system: Abutilon theophrasti; assay: Phytotoxicity against Abutilon theophrasti assessed as seed germination at 1 mM after 4 days relative to control; type: functional
[5] = test system: Abutilon theophrasti; assay: Phytotoxicity against Abutilon theophrasti assessed as seed germination at 0.5 mM after 2 days relative to control; type: functional
[6] = test system: Abutilon theophrasti; assay: Phytotoxicity against Abutilon theophrasti assessed as seed germination at 5 mM after 2 days relative to control; type: functional
[7] = test system: Abutilon theophrasti; assay: Phytotoxicity against Abutilon theophrasti assessed as seed germination at 0.6 mM after 2 days relative to control; type: functional
[8] = test system: Abutilon theophrasti; assay: Phytotoxicity against Abutilon theophrasti assessed as seed germination at 2 mM after 2 weeks; type: functional, organism-based
[9] = test system: Abutilon theophrasti; assay: Phytotoxicity against Abutilon theophrasti assessed as seed germination at 0.6 mM after 4 days relative to control; type: functional
[10] = test system: Abutilon theophrasti; assay: Phytotoxicity against Abutilon theophrasti assessed as seed germination at 0.8 mM after 2 days relative to control; type: functional
[11] = test system: Abutilon theophrasti; assay: Phytotoxicity against Abutilon theophrasti assessed as seed germination at 2 mM after 2 days relative to control; type: functional
[12] = test system: Abutilon theophrasti; assay: Phytotoxicity against Abutilon theophrasti assessed as seed germination at 2 mM after 4 days relative to control; type: functional
[13] = test system: Abutilon theophrasti; assay: Phytotoxicity against Abutilon theophrasti assessed as seed germination at 0.8 mM after 4 days relative to control; type: functional

Row | Compound | Activity [1] [%] | Activity [2] [%] | Activity [3] [%] | Activity [4] [%] | Activity [5] [%] | Activity [6] [%] | Activity [7] [%] | Activity [8] | Activity [9] [%] | Activity [10] [%] | Activity [11] [%] | Activity [12] [%] | Activity [13] [%]
1 | O=c1[nH]c2ccccc2o1 [BENZOXAZOLINONE] | 75 | 111 | 125 | 116 | 118 | 14 | – | – | – | – | – | – | –
2 | O=C1C(O[C@@H]2O[C@H](CO)[C@@H](O)[C@H](O)[C@H]2O)Oc2ccccc2N1O (stereo partly specified) | – | – | – | – | – | 89 | – | – | – | – | – | – | –
3 | O=C1C(O)Oc2ccccc2N1O (stereo unspecified) | – | 6 | – | 72 | – | – | 59 | Toxic | 97 | 40 | 0 | 0 | 82

Reference: ChEMBL document CHEMBL1151640, “Benzoxazolinone, 2,4-Dihydroxy-1,4-benzoxazin-3-one, and Its Glucoside from Acanthus mollis Seeds Inhibit Velvetleaf Germination and Growth” (1985)
